Measurements taken from patent publication US20080274060A1, “Therapeutic Foam” (priority 2005, published 2008).

Assay: In vitro absorption of foam/gas in fresh human venous blood
Type: in vitro ADME
Experimental: In vitro experiments were conducted to determine the absorption of foam made with different gases in fresh human venous blood.
A 20 ml polypropylene syringe barrel was prepared by puncturing its side wall with a relatively large hypodermic needle to make a hole approximately 1 mm in diameter. This hole was then covered by securing a piece of clear flexible vinyl sheet over it with clear adhesive tape. A small magnetic stirrer element was introduced into the syringe barrel and the plunger then replaced. 20 ml of human venous blood was then with withdrawn in the usual manner from a human subject using the specially prepared syringe fitted with a hypodermic needle.
The hypodermic needle was removed and the syringe then placed on a magnetic stirrer unit so that the magnetic element in the syringe thoroughly agitated the blood. The Luer nozzle of the syringe was then connected to a 50 cm piece of manometer tubing which was arranged horizontally and left open at one end. The manometer tubing was secured against a scale.
A 0.5 ml measuring syringe with a fine pre-fitted needle was then filled with foam made from 1% polidocanol solution and air.
The needle of the 0.5 ml syringe was then introduced through the vinyl sheet on the side wall of the 20 ml syringe. […] The 0.5 ml aliquot of foam was then injected quickly and simultaneously a timer started (t0). As the foam displaced blood in the 20 ml syringe, the column of blood from the 20 ml syringe was displaced into the manometer tubing and the distance along the tubing reached by the distal end of the blood column was noted against the scale. The scale itself comprised spaced marker lines equally spaced at about 1 cm intervals.
As the gas in the foam started to be absorbed by the blood, the blood in the manometer tubing started to recede back towards the syringe. After the column appeared to have stopped moving, the timer was stopped (tF). The position of the distal end was again noted.
In this experiment, the air foam test was only observed for a few minutes after tF. […] A 20 ml syringe of fresh human venous blood, as in the above experiments, was injected with a 0.5 ml aliquot of a foam containing a percentage of nitrogen. The contents of the syringe were agitated as above and a period of 24 hours allowed to elapse.

Absorbed volume at tF (0.5 ml aliquot in 20 ml blood): 0.46 mL
Unabsorbed gas % (at tF): 8%
Unabsorbed gas ml (at tF): 0.04 mL
Position of blood at tF ("z") (manometer scale intervals, 45 intervals approx. 0.5 ml): 5.5
tF (time until blood column stopped moving, 0.5 ml aliquot in 20 ml blood): 140 s
SMILES: O=O [Oxygen gas, oxygen gas]
